Article PMC2694132 (Cancer research, 2009)

Legend:
[1] = cited from earlier work; for apparent terminal half-life: patients treated with SAHA; for serum level relative to the parent compound (higher, on average): serum from patients treated with SAHA
[2] = target: T1, UGT1A8*3 (UGT1A8p.Cys277Tyr) (Homo sapiens, UniProt Q9HAW9, C277Y); test: Glucuronidation, UGT1A8*3 variant cell homogenate; format: in vitro ADME; settings: data not shown
T1 sequence (Q9HAW9 26-530 C277Y): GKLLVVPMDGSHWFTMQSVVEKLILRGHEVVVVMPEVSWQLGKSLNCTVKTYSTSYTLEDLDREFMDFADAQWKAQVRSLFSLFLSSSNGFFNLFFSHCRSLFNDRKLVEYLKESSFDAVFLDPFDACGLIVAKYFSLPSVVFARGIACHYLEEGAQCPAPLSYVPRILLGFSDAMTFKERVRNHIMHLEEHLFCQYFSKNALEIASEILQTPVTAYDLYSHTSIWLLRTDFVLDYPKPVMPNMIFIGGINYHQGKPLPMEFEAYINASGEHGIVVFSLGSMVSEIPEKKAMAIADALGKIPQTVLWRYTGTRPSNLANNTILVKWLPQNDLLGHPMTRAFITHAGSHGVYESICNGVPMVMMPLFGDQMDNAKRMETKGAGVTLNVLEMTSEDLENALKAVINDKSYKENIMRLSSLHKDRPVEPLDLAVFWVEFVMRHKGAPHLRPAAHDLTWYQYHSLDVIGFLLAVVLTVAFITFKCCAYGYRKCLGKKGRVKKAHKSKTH

O=C(O)CCC(=O)Nc1ccccc1 [4-anilino-4-oxobutanoic acid]
apparent terminal half-life [1]: 6 to 9 h | serum level relative to the parent compound (higher, on average) [1]: 10- to 13 fold

O=C(CCCCCCC(=O)Nc1ccccc1)NO[C@@H]1O[C@H](C(=O)O)[C@@H](O)[C@H](O)[C@H]1O [SAHA-glucuronide]
apparent terminal half-life [1]: ~ 1.8 hours | serum level relative to the parent compound (higher, on average) [1]: 3- to 4 fold

Cc1cc(=O)oc2cc(O)ccc12 [4-methylumbellifer-one]
glucuronidation activity against 4-methylumbelliferone [2]: detectable levels of activity
